# How the values were obtained:
# αllbβ3 integrin = target: T1, αllbβ3 integrin (Homo sapiens, UniProt P05106+P08514); test: ELISA: inhibition of binding of αllbβ3 integrin membrane preparation to coated extracellular matrix protein; conditions: human platelet membrane preparation
# T1 construct: Human platelet membrane preparations were used as a source of αllbβ3 integrin; from tissue; host or cells: human platelets (membrane preparation)
# Procedure, shortened: (§1)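 Integrin sources were human platelet membrane preparations for αIIbβ3 and WM-115 cells for αVβ3, each preincubated with test compound. Binding to fibrinogen- or vitronectin-coated plates (10 µg/well) was quantified with an anti-integrin β3 antibody and an HRP-coupled secondary antibody using colorimetric detection.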
# αVβ3 integrin = target: T2, αVβ3 integrin (Homo sapiens, UniProt P05106+P06756); test: ELISA: inhibition of binding of αVβ3 integrin (source WM-115 cell line) to coated extracellular matrix protein; conditions: WM-115 cell line as integrin source
# T2 construct: the cell line WM-115 was used as a source of αVβ3 integrin; endogenous in cells; host or cells: WM-115 cell line
# Procedure, shortened: as §1
# T2 sequence (P06756 31-889 limits assumed): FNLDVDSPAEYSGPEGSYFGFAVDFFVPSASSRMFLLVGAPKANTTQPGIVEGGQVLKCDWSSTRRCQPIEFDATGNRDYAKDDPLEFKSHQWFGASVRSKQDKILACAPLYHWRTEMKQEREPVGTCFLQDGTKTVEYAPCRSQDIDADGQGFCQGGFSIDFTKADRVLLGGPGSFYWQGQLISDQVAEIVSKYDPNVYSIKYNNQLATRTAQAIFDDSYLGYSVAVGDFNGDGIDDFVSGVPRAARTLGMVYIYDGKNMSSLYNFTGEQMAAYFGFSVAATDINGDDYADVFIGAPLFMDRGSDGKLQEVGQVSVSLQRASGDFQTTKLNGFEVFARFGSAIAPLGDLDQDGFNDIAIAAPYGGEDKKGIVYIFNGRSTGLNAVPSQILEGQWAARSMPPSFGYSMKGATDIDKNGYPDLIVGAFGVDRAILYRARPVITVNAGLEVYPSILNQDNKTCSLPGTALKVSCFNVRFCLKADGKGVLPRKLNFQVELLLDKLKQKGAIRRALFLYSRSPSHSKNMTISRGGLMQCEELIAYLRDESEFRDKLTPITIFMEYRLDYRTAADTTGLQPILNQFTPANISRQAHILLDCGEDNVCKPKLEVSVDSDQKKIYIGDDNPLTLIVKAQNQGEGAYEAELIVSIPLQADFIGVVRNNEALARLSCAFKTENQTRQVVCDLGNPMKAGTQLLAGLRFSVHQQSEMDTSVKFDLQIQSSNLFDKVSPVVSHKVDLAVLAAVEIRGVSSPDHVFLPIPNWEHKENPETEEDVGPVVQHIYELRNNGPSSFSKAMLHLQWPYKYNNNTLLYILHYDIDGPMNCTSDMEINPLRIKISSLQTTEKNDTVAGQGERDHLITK
# T2 sequence (P06756 891-1048 partner limits assumed): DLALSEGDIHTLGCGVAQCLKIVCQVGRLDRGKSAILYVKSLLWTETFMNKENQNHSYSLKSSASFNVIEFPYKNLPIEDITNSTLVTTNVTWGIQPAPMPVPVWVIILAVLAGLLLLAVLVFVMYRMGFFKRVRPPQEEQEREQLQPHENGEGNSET
# T2 sequence (P05106 27-788): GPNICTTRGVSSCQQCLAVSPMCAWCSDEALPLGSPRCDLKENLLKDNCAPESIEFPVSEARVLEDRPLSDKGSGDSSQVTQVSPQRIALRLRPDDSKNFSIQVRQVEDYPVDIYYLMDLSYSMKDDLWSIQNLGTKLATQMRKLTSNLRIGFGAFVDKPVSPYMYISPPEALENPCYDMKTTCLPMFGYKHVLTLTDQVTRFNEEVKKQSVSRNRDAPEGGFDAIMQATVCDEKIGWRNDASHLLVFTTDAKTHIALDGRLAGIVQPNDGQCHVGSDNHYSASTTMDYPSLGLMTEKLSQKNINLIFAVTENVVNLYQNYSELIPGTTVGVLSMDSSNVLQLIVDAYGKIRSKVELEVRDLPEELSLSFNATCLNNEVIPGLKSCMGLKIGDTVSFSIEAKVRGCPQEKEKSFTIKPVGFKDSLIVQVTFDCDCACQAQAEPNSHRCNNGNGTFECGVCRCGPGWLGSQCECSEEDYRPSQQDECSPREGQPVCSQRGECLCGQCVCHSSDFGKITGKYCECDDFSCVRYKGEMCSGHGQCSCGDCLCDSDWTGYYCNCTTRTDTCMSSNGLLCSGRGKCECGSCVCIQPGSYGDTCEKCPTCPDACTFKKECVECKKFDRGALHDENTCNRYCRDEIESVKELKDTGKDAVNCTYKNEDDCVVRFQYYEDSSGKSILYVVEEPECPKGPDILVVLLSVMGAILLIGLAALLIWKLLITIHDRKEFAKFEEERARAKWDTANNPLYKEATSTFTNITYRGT
# T1 sequence (P08514 32-887 limits assumed): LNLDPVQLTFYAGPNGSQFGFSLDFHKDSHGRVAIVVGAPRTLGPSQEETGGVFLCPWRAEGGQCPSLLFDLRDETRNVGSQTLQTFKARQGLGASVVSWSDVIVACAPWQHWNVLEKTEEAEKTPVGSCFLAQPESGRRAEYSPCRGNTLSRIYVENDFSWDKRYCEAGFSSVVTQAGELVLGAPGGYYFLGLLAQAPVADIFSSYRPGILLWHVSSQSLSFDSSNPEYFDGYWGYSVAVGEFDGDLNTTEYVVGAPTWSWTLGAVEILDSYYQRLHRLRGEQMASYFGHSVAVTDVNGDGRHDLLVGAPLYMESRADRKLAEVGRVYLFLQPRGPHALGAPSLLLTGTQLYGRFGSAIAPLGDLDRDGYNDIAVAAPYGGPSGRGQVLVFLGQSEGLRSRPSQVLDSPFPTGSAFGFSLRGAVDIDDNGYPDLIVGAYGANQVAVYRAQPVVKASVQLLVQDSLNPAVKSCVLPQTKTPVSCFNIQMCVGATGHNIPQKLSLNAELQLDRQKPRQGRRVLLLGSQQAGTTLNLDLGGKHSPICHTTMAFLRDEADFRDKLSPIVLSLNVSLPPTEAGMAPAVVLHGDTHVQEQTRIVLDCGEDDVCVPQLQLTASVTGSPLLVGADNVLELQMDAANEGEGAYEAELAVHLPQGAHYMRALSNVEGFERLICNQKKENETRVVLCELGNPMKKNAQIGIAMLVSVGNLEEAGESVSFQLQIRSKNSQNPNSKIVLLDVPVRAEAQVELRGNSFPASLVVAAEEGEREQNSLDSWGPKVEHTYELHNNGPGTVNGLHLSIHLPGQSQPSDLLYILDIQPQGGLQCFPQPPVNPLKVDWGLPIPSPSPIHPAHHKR
# T1 sequence (P08514 891-1039 partner limits assumed): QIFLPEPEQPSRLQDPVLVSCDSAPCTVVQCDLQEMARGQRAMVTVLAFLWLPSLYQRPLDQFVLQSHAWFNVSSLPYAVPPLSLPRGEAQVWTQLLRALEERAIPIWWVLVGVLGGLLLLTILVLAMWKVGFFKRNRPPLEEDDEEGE
# T1 sequence (P05106 27-788): as the sequence (P05106 27-788) above
SMILES,INHIBITION @ 250 uM RECEPTOR allBb3 SUBSTRATE FIBRINOGEN (αllbβ3 integrin),INHIBITION 250 uM RECEPTOR allBb3 SUBSTRATE VITRONECTIN (αllbβ3 integrin),INHIBITION 250 uM RECEPTOR aVb3 SUBSTRATE FIBRINOGEN (αVβ3 integrin)
"CCOC1C(O)C(COCc2cccc(N)c2)OC(OCc2ccccc2)C1NC(=O)CCC(=O)O (single isomer, unassigned) [Compound 88]",− (0% to 35% inhibition at 250 micromolar),++ (61% to 80% inhibition at 250 micromolar),− (0% to 35% inhibition at 250 micromolar)
"CCOC1C(O)C(COCc2cccc(N)c2)OC(OCc2ccccc2)C1NC(=O)CCC(=O)O (single isomer, unassigned) [Compound 89]",− (0% to 35% inhibition at 250 micromolar),+++ (81% to 100% inhibition at 250 micromolar),+ (36% to 60% inhibition at 250 micromolar)
"COCC1OC(OCc2ccccc2)C(NC(=O)CCNC(=N)N)C(OCC(=O)O)C1O (single isomer, unassigned) [Compound 90]",− (0% to 35% inhibition at 250 micromolar),+++ (81% to 100% inhibition at 250 micromolar),− (0% to 35% inhibition at 250 micromolar)
"COCC1OC(OCc2ccccc2)C(NC(=O)CCNC(=N)N)C(OCC(=O)O)C1O (single isomer, unassigned) [Compound 91]",+ (36% to 60% inhibition at 250 micromolar),+ (36% to 60% inhibition at 250 micromolar),− (0% to 35% inhibition at 250 micromolar)
"CCOCC1OC(OCc2ccccc2)C(NC(=O)CCNC(=N)N)C(OCC(=O)O)C1O (single isomer, unassigned) [Compound 92]",+ (36% to 60% inhibition at 250 micromolar),+++ (81% to 100% inhibition at 250 micromolar),++ (61% to 80% inhibition at 250 micromolar)
"CCOCC1OC(OCc2ccccc2)C(NC(=O)CCNC(=N)N)C(OCC(=O)O)C1O (single isomer, unassigned) [Compound 93]",− (0% to 35% inhibition at 250 micromolar),+++ (81% to 100% inhibition at 250 micromolar),+++ (81% to 100% inhibition at 250 micromolar)
"N=C(N)NCCC(=O)NC1C(OCc2ccccc2)OC(CO)C(O)C1OCC(=O)O (single isomer, unassigned) [Compound 94]",− (0% to 35% inhibition at 250 micromolar),+ (36% to 60% inhibition at 250 micromolar),− (0% to 35% inhibition at 250 micromolar)
"CC(=O)NC1C(OCc2ccccc2)OC(COCc2cccc(N)c2)C(O)C1OCC(=O)O (single isomer, unassigned) [Compound 95]",− (0% to 35% inhibition at 250 micromolar),++ (61% to 80% inhibition at 250 micromolar),− (0% to 35% inhibition at 250 micromolar)
"CC(=O)NC1C(OCc2ccccc2)OC(COCc2cccc(N)c2)C(O)C1OCC(=O)O (single isomer, unassigned) [Compound 96]",− (0% to 35% inhibition at 250 micromolar),+ (36% to 60% inhibition at 250 micromolar),− (0% to 35% inhibition at 250 micromolar)
"COCC1OC(OCc2ccccc2)C(NC(=O)CCNC(=N)N)C(OCc2ccc(C(=O)O)cc2)C1O (single isomer, unassigned) [Compound 97]",− (0% to 35% inhibition at 250 micromolar),− (0% to 35% inhibition at 250 micromolar),− (0% to 35% inhibition at 250 micromolar)
"COCC1OC(OCc2ccccc2)C(NC(=O)CCNC(=N)N)C(OCc2ccc(C(=O)O)cc2)C1O (single isomer, unassigned) [Compound 98]",− (0% to 35% inhibition at 250 micromolar),+++ (81% to 100% inhibition at 250 micromolar),− (0% to 35% inhibition at 250 micromolar)
"CCOCC1OC(OCc2ccccc2)C(NC(=O)c2cccc(N)c2)C(OCc2ccc(C(=O)O)cc2)C1O (single isomer, unassigned) [Compound 99]",− (0% to 35% inhibition at 250 micromolar),++ (61% to 80% inhibition at 250 micromolar),− (0% to 35% inhibition at 250 micromolar)

# Reference: patent publication US20080176936A1, “Classes of Compounds that Interact with Integrins” (priority 2005, published 2008)
